# Experimental data taken from PubChem BioAssay AID2252 (Southern Research Specialized Biocontainment Screening …, 2010).
# Test system: THP-1 viability, CellTiter-Glo luminescence, 72 h
# Test: PubChem AID 2252
row,Structure (SMILES),EC50 [µM]
1,O=C1c2ccccc2C2=Nc3ccccc3SC(c3ccccc3F)C12 (stereo not given),13.8
2,O=C(Cn1nc(CNc2ccc(Br)cc2)[n+]2c1CCCCC2)c1ccc([N+](=O)[O-])cc1,27.3
3,CC(C)N1CCc2c(sc(NC(=O)c3ccc(S(=O)(=O)N4CCc5ccccc54)cc3)c2C(N)=O)C1,8.45
4,CCOC(=O)c1c(-c2ccc(-c3ccccc3)cc2)csc1NC(=O)CNCCN(C)C,7.38
5,Oc1ccccc1C(Nc1nccs1)c1ccc2cccnc2c1O (stereo not given),2.11
6,COc1cccc(Nc2cc(C)nc3ccccc23)c1,30.5
7,CCN1CCN(Cc2ccc(NC(=O)c3cc(NC(=O)c4cc(-c5ccc(OC)cc5)n[nH]4)cc(OC)c3)cc2C(F)(F)F)CC1,3.92
8,C#CCOCCOCCOCCNc1nc(N2CCN(C(=O)CCCCCCCCCCNC(=O)[C@H]([C@@H](C)CC)n3cc(CCCCCN)nn3)CC2)nc(N2CCN(C(=O)CCCCCCCCCCNC(=O)[C@H]([C@@H](C)CC)n3cc(CCCCN=C(N)N)nn3)CC2)n1,5.17
9,COc1cc2c3cc1Oc1cc(ccc1O)C[C@@H]1c4c(cc(OC)c(O)c4Oc4ccc(cc4)C[C@H]3N(C)CC2)CCN1C,8.8
10,C=CCn1c(NS(=O)(=O)c2ccccc2)c(S(=O)(=O)c2ccc(C)cc2)c2nc3ccccc3nc21,40.9
11,COC12C(COC(N)=O)C3=C(C(=O)C(C)=C(N)C3=O)N1CC1C2N1C (stereo not given),11.6
12,CCOc1ccc(-c2cc(C)[n+](CCN(CC)CC)c(-c3ccc(OCC)cc3)c2)cc1,4.37
13,O=C(Nc1nnc(-c2cccs2)o1)c1cccc(F)c1,16.9
14,Cc1ccc(C(=O)N2C(=S)C(c3ccc(F)cc3)=NC23CCN(C)CC3)cc1,16.7
15,CCc1ccc2c(c1)CCCN2C(=O)c1ccccc1C(=O)O,38.3
16,COc1ccccc1Nc1c2ccccc2nc2ccccc12,8.38
17,O=C(Cc1ccccc1)NNC(=S)NC(=O)c1cccs1,17.5
18,CN(C)CCCN(C(=O)CCc1ccccc1)c1nc2ccc(Br)cc2s1,13.4
19,Cc1cccc(Nc2cc(C)c3c(O)cccc3n2)c1C,5.35
20,Cc1ccc2sc(N(CCCN(C)C)C(=O)c3ccc(Br)s3)nc2c1C,21.2
21,O=C(/C=C/c1ccccc1)c1ccc(NC2=NCCCS2)cc1,27.4
22,O=C(CCc1ccccc1)NNC(=O)c1ccccn1,18.2
23,Oc1[nH]c2ccc(Br)cc2c1N=NC(=S)N1CCOCC1,1.82
24,Oc1cc(Cl)ccc1Oc1ccc(Cl)cc1Cl,28.6
25,COc1cccc(/C=N/NC(=O)CSCC(=O)Nc2ccccc2)c1O,5.26

row,Structure (SMILES),EC50 [µM]
1,O=C(NNC(=S)NC(=O)c1ccccc1)c1ccc(O)cc1,14.3
2,C[C@H]1c2cccc(O)c2C(O)=C2C(=O)C3(O)C(O)=C(C(N)=O)C(=O)[C@@H](N(C)C)[C@@H]3[C@@H](O)[C@@H]21 (stereo not given in full),30.3
3,Cc1ccc(Nc2cc(C)c3c(O)cccc3n2)cc1C,23.8
4,C#CCOCCOCCOCCNc1nc(N2CCN(C(=O)CCCCCCCCCCNC(=O)[C@H](CO)n3cc(CCCCCN)nn3)CC2)nc(N2CCN(C(=O)CCCCCCCCCCNC(=O)[C@H](CCCN=C(N)N)n3cc(C[C@@H](C)CC)nn3)CC2)n1,6.31
5,Cc1cc(N/N=C/c2ccc(F)cc2)nc(NCc2ccccc2)n1,22.5
6,O=C(Cn1nc(CNc2ccc(Cl)cc2)[n+]2c1CCCCC2)c1ccc(Br)cc1,11.2
7,CC(C)NC(=O)CN1CCN(Cc2nc(C(c3ccccc3)c3ccccc3)no2)CC1,< 0.1
8,Oc1ccc(CN2CCCc3ccccc32)c2cccnc12,3.33
9,CN1CCN(CCCN2c3ccccc3Sc3ccc(C(F)(F)F)cc32)CC1,10.3
10,Cc1ccc2c(c1)c1c(n2CC(O)CN2CCC(C)CC2)CCCC1 (stereo not given),16
11,CCCCCCCCCCCCCCCC[N+](C)(C)CC,0.48
12,O=C(C[n+]1cc(-c2ccc(Cl)c(Cl)c2)n2c1CCC2)N1c2ccccc2Sc2ccccc21,10.3
13,O=c1[nH]c(=S)ccn1C1OC(CO)C(O)C1O (stereo not given),16.3
14,CC(C(=O)NC1C=CS(=O)(=O)C1)N1C(=O)/C(=C/c2cccc(Cl)c2)SC1=S (stereo not given),24.5
15,CC1(C)CC(N2CCN(C(c3ccccc3)c3ccccc3)CC2)=CC(=[N+]2CCCCC2)C1,1.05
16,Nc1nc2ccccc2n1CCOc1ccccc1Cl,16.6
17,Cc1cccc(C(=O)NNC(=S)NC(=O)c2cccs2)c1,14.6
18,Cc1nc(N)nc(N)c1CCCc1ccc(Cl)c(Cl)c1,5.79
19,Cc1ccc(CNCCC2=CCCCC2)cc1,26.7
20,CC(C)NC(=O)Nc1ccc(Br)cc1Cl,< 0.1
21,C/C(=N\NC(=O)c1ccc(CN2CCc3ccccc3C2)cc1)c1ccccc1O,7.89
22,C#CCOCCOCCOCCNc1nc(N2CCN(C(=O)CCCCCCCCCCNC(=O)Cn3cc(C[C@@H](C)O)nn3)CC2)nc(N2CCN(C(=O)CCCCCCCCCCNC(=O)[C@@H]([C@H](C)CC)n3cc(CCCCCN)nn3)CC2)n1,9.97
23,COc1cccc(Nc2nc(NCC3CCCO3)c3ccccc3n2)c1 (stereo not given),2.27
24,O=C(c1ccccc1)c1c2c(cc3sc4ccccc4[n+]13)-c1cccc3cccc-2c13,1.36
25,CSc1ccc2c(c1)C(N1CCN(C)CC1)Cc1ccc(F)cc1S2 (stereo not given),5.63

row,Structure (SMILES),EC50 [µM]
1,CCc1ccc(-c2nn(-c3ccccc3)cc2CSC(=N)N)cc1,5.18
2,c1ccc2cc3c(NCCN4CCOCC4)ccnc3cc2c1,3.7
3,Cc1cccc(NC2=NC3(CCCCC3)N=C(N)N2)c1,34.2
4,CN1CCN(c2ccc(NC(=O)c3ccc(-c4ccc(Br)cc4)o3)cc2)CC1,7.84
5,NC1=NC2(CCCCC2)N=C(Nc2ccc(Br)cc2)N1,2.39
6,Cc1ccc(-c2c[n+](Cc3ccc(Cl)c(Cl)c3)c3n2CCC3)cc1,4.37
7,CCN(CC(O)COc1ccc(OCC(O)CN(CC)C2CCCCC2)cc1)C1CCCCC1 (stereo not given),37.4
8,Cc1[nH]nc2c1C(C1CC=CCC1)C(C#N)=C(N)O2 (stereo not given),13.9
9,Cc1oc2c(O)c(O)ccc2c(=O)c1-c1ccccc1,24.9
10,Oc1c(Cl)cc(CN2CCCCC2)c2cccnc12,0.71
11,CC(C)N=C(N)N=C(N)Nc1ccc(Cl)cc1,35.1
12,O=C1C(SCCO)=C(SCCO)C(=O)c2ccccc21,3.62
13,CC1CCCC(NC(=O)COC(=O)CCSc2ccccc2)C1C (stereo not given),< 0.1
14,COc1cccc(-c2nnc(NC(=O)c3ccc(Cl)s3)o2)c1,15
15,N/C(=N\OC(=O)N1CCOCC1)c1ccccc1,15.5
16,O=C1C(=O)c2ccccc2-c2ccccc21,2.22
17,CN(C)CCCN1c2ccccc2Sc2ccc(C(F)(F)F)cc21,14.6
18,C#CCOCCOCCOCCNc1nc(N2CCN(C(=O)CCCCCCCCCCNC(=O)[C@@H](CCSC)n3cc(CCO)nn3)CC2)nc(N2CCN(C(=O)CCCCCCCCCCNC(=O)[C@H]([C@@H](C)CC)n3cc(CCCCCN)nn3)CC2)n1,12.9
19,O=C(N/N=C/c1ccc(O)c(O)c1)C1c2ccccc2Oc2ccccc21,42
20,C#CCOCCOCCOCCNc1nc(N2CCN(C(=O)CCCCCCCCCCNC(=O)[C@H](CCCCN)n3cc(C)nn3)CC2)nc(N2CCN(C(=O)CCCCCCCCCCNC(=O)[C@H](CCCN=C(N)N)n3cc(C[C@@H](C)CC)nn3)CC2)n1,5.13
21,C#CCOCCOCCOCCNc1nc(N2CCN(C(=O)CCCCCCCCCCNC(=O)[C@H]([C@@H](C)CC)n3cc(CCCCN=C(N)N)nn3)CC2)nc(N2CCN(C(=O)CCCCCCCCCCNC(=O)[C@H](CO)n3cc(CCCCCN)nn3)CC2)n1,7.5
22,COc1cccc(/C=N/NC(=O)C(=O)N2CCCC2)c1O,40
23,CCc1c(C)n([O-])c2c([n+]1=O)CCCCC2,< 0.1
24,C#CCOCCOCCOCCNc1nc(N2CCN(C(=O)CCCCCCCCCCNC(=O)[C@H](CCCCN)n3cc(C[C@@H](C)CC)nn3)CC2)nc(N2CCN(C(=O)CCCCCCCCCCNC(=O)[C@H](CCCN=C(N)N)n3cc(C[C@@H](C)CC)nn3)CC2)n1,5.23
25,O=C(NCCCN1CCN(c2ccc(F)cc2)CC1)Nc1ccc([N+](=O)[O-])cc1,45.1

row,Structure (SMILES),EC50 [µM]
1,COC(=O)C1C(O)C(C)C(O)C(C)(O)/C=C\C=C(/C)C(=O)Nc2c(C)c(OC(C)=O)c3c(c2O)C(=O)C(C)=C2OCOC(=C23)/C(C)=C/C(C)(O)C(O)C(C)C1O (stereo not given),< 0.1
2,C/C(=N\NC(=O)c1ccc(Cl)cc1)c1ccccn1,0.97
3,O=C(NCc1ccco1)C1CCN(C(=O)c2cc3sccc3n2Cc2ccc(Cl)cc2)CC1,27.8
4,COc1ccc(/C=N/Nc2cc(C)nc3ccccc23)cc1,7.03
5,N#Cc1ccc(C2=NC(C(F)(F)F)(C(F)(F)F)c3c(n(Cc4ccco4)c(=O)[nH]c3=O)N2)cc1,31.2
6,Clc1ccc(-c2cc(C3CCNCC3)[nH]n2)c(Cl)c1,24.3
7,Oc1cccc2ccc(Nc3ccccn3)nc12,1.75
8,O=C(CNCCC1=CCCCC1)Nc1ccc(N2CCCCCC2)cc1,15.6
9,Cc1cc(N2CCC(C)CC2)nc(NCc2ccccc2)n1,6.23
10,CC(=O)Nc1nc(C)c(-c2csc(Nc3ccc(O)cc3)n2)s1,4.01
11,Nc1c2ccccc2nc2ccccc12,4.83
12,CS(=O)(=O)c1ccc([C@@H](O)[C@@H](CF)NC(=O)C(Cl)Cl)cc1,< 0.1
13,COc1ccc(OC)c(S(=O)(=O)N2CCC(C(=O)NCc3ccccc3OC)CC2)c1,< 0.1
14,NC[C@@H]1O[C@H](C23CC4CC(CC(C4)C2)C3)Cc2c1ccc(O)c2O,3.6
15,COc1ccc(/C=N/Nc2cc(C)nc3ccc(Br)cc23)cc1,4.17
16,Cc1cc(O)c2c(c1)C(=O)C13C(=C2O)C(=O)[C@H]2[C@@H](O)[C@@H]1[C@H]1[C@H](O)[C@@H]3C(=O)C3=C(O)c4c(O)cc(C)cc4C(=O)C312 (stereo not given in full),6.36
17,Cc1ccc(Nc2cc(C)nn2-c2nc(C)cc(=O)[nH]2)cc1,0.65
18,Cc1ccc(-c2c[n+](CC(=O)Nc3nc(-c4ccccc4)cs3)c3n2CCC3)cc1,13.5
19,Oc1ccc(C=Nc2ccc3ncccc3c2)c(O)c1,16.5
20,O=C1C=C(c2ccc(Cl)cc2)C(=O)N1Nc1ccccc1,5.96
21,Cc1ccccc1C(=O)NNC(=S)NC(=O)COc1ccccc1,48.1
22,COc1nccnc1NS(=O)(=O)c1ccc(N=Cc2c(C)[nH]n(-c3ccc(C)c(C)c3)c2=O)cc1,14.4
23,COc1ccccc1Nc1nc(NCC2CCCO2)c2ccccc2n1 (stereo not given),14.1
24,C#CCOCCOCCOCCNc1nc(N2CCN(C(=O)CCCCCCCCCCNC(=O)Cn3cc(C[C@@H](C)O)nn3)CC2)nc(N2CCN(C(=O)CCCCCCCCCCNC(=O)[C@H](CCCN=C(N)N)n3cc(C[C@@H](C)CC)nn3)CC2)n1,14.3
25,CCCCn1c(NS(=O)(=O)c2ccccc2)c(C(=O)OCC)c2nc3ccccc3nc21,20.1
